The text below walks through data of publication PMC5840343, “Interplay between conformational selection and zymogen activation” (Scientific Reports, 2018).

Values joined by “and” are separate entries in the source; they are usually repeats but may differ in a detail not shown here. Identical values can stand only once. “Also recorded” adds a separate entry of the source.

Assay [1] concerns the target T1, prethrombin-1 (Homo sapiens, UniProt P00734, S568A).
T1 construct: generates the intermediate prethrombin-1 (Pre1) composed of kringle-2 and the protease domain; made in house
Kind of assay: Stopped-flow rapid kinetics of FPR binding to the active site. As to the method: (§1) Rapid kinetic experiments were conducted on an Applied Photophysics SX20 stopped-flow spectrometer under conditions of excess ligand. The dead time of the mixing cell for this instrument is 0.5–1 ms. Final concentrations of 50–75 nM of thrombin and meizothrombin, or 200–400 nM of prothrombin, prethrombin-1 and prethrombin-2 were used in a buffer containing 400 mM ChCl, 50 mM Tris, 0.1% PEG8000, pH 8.0, at 15 °C. The solution containing the protein was mixed 1:1 with 60 µL solutions of FPR in the same buffer. FPR is the […] analog of the irreversible active site inhibitor H-D-Phe-Pro-Arg-CH2Cl, for which detailed structural information exists on its interaction with the active site of thrombin[47],[61]. Rapid kinetics of FPR binding were studied using an excitation of 295 nm and a cutoff filter at 320 nm. Baselines were measured by mixing the protein into buffer in the absence of ligand. Each kinetic trace for a given ligand concentration was taken as the average of a minimum of six determinations. Traces were fit to single or double exponentials based on the analysis of residuals using software supplied by Applied Photophysics.
(§2) A detailed discussion of ligand binding mechanisms established by rapid kinetics is given elsewhere[25]–[27]. and is briefly summarized below for the sake of completeness. The relevant kinetic scheme for ligand binding to the active site of a trypsin-like protease or zymogen is1 E^∗k12←⟶k21Ekon[L]←⟶koffE:L E* and E depict the partitioning of the ensemble of pre-existing conformations between those with the active site accessible (E) or inaccessible (E*) to ligand binding. The ligand, L, selectively binds to E with a second order rate of association kon. Under conditions where L is in large excess over the macromolecule, the reaction scheme in eq. 1 gives two independent rates of relaxation to equilibrium according to the expression2 2α1,2=k12+k21+kon[L]+koff±(kon[L]+koff−k12−k21)^2+4k21kon[L]
(§3) The fast relaxation, α1, always increases and eventually grows linearly with [L]. Depending on the sign of the expression koff−k12 , the value of the slow relaxation α2 hyperbolically decreases ( koff>k12 ) or increases ( koff<k12 ) with [L], and remains constant when koff=k12 [25]–[27]. The fast relaxation that eventually grows linearly with [L] reflects the binding event. The slow relaxation monitors the conformational transition associated with binding.
(§4) Resolution of all four independent rate constants in the reaction scheme in eq. 1 requires measurements of both relaxations. […] 2 can be resolved unequivocally. When α2 decreases hyperbolically with [L], the lower limit in the plot, α2(0) , measures the value of koff or the sum k12+k21 , whichever is smaller. The upper limit α2(∞) measures the rate for the E* → E transition k12. […] If only α2 is accessible to experimental measurements, estimation of the E*:E ratio requires additional information from the apparent equilibrium dissociation constant3 Kd,app=koff/kon(1+k21/k12)=Kd(1+k21/k12)
(§5) defined in terms of the intrinsic equilibrium dissociation constant, Kd, and the E*:E ratio k21/k12. Direct and independent determination of Kd,app can be obtained by fluorescence titrations under the same experimental conditions used for stopped-flow measurements. The definition of Kd,app in eq. 3 leads to three useful expressions, i.e.,4 kon≥α22(0)/α2(∞)Kd,app when α2 decreases hyperbolically with [L] as in the case of prothrombin (Fig. 3A),5 kon=α2(0)[α2(∞)+k21]/α2(∞)Kd,app=α2(0)/Kd,app+α2(0)/α2(∞)Kd,appk21 when α2 increases hyperbolically with [L] as in the case of prethrombin-2 (Fig. 3A), and6 kon=α2(0)+k21/Kd,app=α2(0)/Kd,app+1/Kd,appk21 when α2 is independent of [L] as in the case of prethrombin-1 (Fig. 3A). The expression in eq. 4 yields a direct estimate of the lower limit of kon from which the value of k21 and the E*:E ratio can be arrived at with the help of eq. 3 (Table 1). […]

Assay [2] addresses T2, prethrombin-2 (Homo sapiens, UniProt P00734, S568A).
T2 construct: the protease domain (T272-E579); made in house
The assay is described as above. As to the method:
as §1, §2, §3, §4, §5

Assay [3] addresses T3, prothrombin (Homo sapiens, UniProt P00734, S568A).
T3 construct: Gla-domain (A1-A46), kringle-1 (C65-C143), kringle-2 (C170-C248) and the protease domain (T272-E579); made in house
Described as above. The method, then: as §1, §2, §3, §4, §5

Assay [4] deals with T4, meizothrombin (Homo sapiens, UniProt P00734, S568A).
T4 construct: Cleavage at R320 retains the modular structure of prothrombin and generates the active intermediate meizothrombin; Cleavage at R320 generates the active intermediate meizothrombin that retains the modular organization of prothrombin; made in house
The assay is described as above. As to the method:
as §1, §2, §3, §4

For assay [5], the target named is T5, thrombin (Homo sapiens, UniProt P00734, S568A).
T5 construct: the protease domain composed of the A and B chains; made in house
The assay is described as above. The method, then:
as §1, §2, §3, §4

The target of assay [6] is T4, meizothrombin. Kind of assay: Equilibrium intrinsic fluorescence titration of FPR binding. From the text:
(§6) defined in terms of the intrinsic equilibrium dissociation constant, Kd, and the E*:E ratio k21/k12. Direct and independent determination of Kd,app can be obtained by fluorescence titrations under the same experimental conditions used for stopped-flow measurements. The definition of Kd,app in eq. 3 leads to three useful expressions, i.e.,4 kon≥α22(0)/α2(∞)Kd,app when α2 decreases hyperbolically with [L] as in the case of prothrombin (Fig. 3A),5 kon=α2(0)[α2(∞)+k21]/α2(∞)Kd,app=α2(0)/Kd,app+α2(0)/α2(∞)Kd,appk21 when α2 increases hyperbolically with [L] as in the case of prethrombin-2 (Fig. 3A), and6 kon=α2(0)+k21/Kd,app=α2(0)/Kd,app+1/Kd,appk21 when α2 is independent of [L] as in the case of prethrombin-1 (Fig. 3A). The expression in eq. 4 yields a direct estimate of the lower limit of kon from which the value of k21 and the E*:E ratio can be arrived at with the help of eq. 3 (Table 1). The expressions in eqs 5 and 6, on the other hand, require assumptions to be made on the value of kon to arrive at the value of k21. In both cases, a lower limit for kon is estimated as kon≥α2(0)/Kd,app .

Assay [7] has as its target T1, prethrombin-1. The description is as above. The settings on record: pH 8.0, 15 °C, read-out: Kd,app (direct fluorescence titration).
Excerpt: as §6

Assay [8] has as its target T2, prethrombin-2. Described as above. Particulars: pH 8.0, 15 °C, read-out: Kd,app (direct fluorescence titration).
Excerpt: as §6

Assay [9] deals with T3, prothrombin. The assay is described as above. The settings on record: 400 mM ChCl, 50 mM Tris, 0.1% PEG8000, pH 8.0, 15 °C, read-out: Kd,app (direct fluorescence titration).
Excerpt: as §6

The target of assay [10] is T5, thrombin. The description is as above. The settings on record: for Kd: thrombin.
Excerpt: as §6

The target in assay [11] is prethrombin-2 (Homo sapiens, UniProt P00734). The experiment in a line: Limited proteolysis by subtilisin in the absence or presence of argatroban. It is filed as biochemical. Particulars: argatroban 500 μM; pH 7.4, 37 °C. From the text:
(§7) Aliquots of proteolysis mixtures were quenched whit NuPAGE LDS buffer and analyzed by non-reducing SDS-PAGE (4–12% acrylamide). None of the gels were cropped and originals are available in the Supplementary Information. The relative intensity of intact protein gel bands, after Coomassie staining, was estimated by densitometric analysis and fit to single exponential decay over time.

Assay [12] deals with prothrombin (Homo sapiens, UniProt P00734). The assay is described as above. It counts as biochemical. Particulars: argatroban 500 μM.
Excerpt: as §7

In assay [13] the target is thrombin (Homo sapiens, UniProt P00734). The assay is described as above. It counts as biochemical. Particulars: argatroban 500 μM; pH 7.4, 37 °C.
Excerpt: as §7

In another assay the target is prothrombin mutant R271W (Homo sapiens, UniProt P00734, R314W). The experiment in a line: Limited proteolysis by chymotrypsin in the absence or presence of argatroban. It is filed as biochemical.
Excerpt: as §7

In another assay the target is prothrombin mutant R320W (Homo sapiens, UniProt P00734, R363W). Described as above. It counts as biochemical.
Excerpt: as §7

[14] abbreviates: active site Ser replaced by Ala, E*→E rate, pH 8.0, 15 °C.
Where [15] appears, read: from rate constants, read-out: Kd,app (calculated from eq. 3).
Setting [16] is: pH 8.0, 15 °C, read-out: Kd,app (direct fluorescence titration).

The term kon denotes a measure of how fast the partners come together. A word on the koff: it is the rate constant with which the complex falls apart. A lower koff goes with a long-lived complex. In the case of `N=C(N)NCCC[C@H](NC(=O)[C@@H]1CCCN1C(=O)[C@H](N)Cc1ccccc1)C(=O)Nc1ccc([N+](=O)[O-])cc1` [FPR, H-D-Phe-Pro-Arg-p-nitroanilide], the k12 is 42 ± 2 s⁻¹ on prethrombin-1 [1] (prethrombin-1, catalytic Ser replaced by Ala, E*→E rate, pH 8.0, 15 °C); 170 ± 10 s⁻¹ at prethrombin-2 [2] (prethrombin-2, catalytic Ser replaced by Ala, E*→E rate, pH 8.0, 15 °C); 6.9 ± 0.3 s⁻¹ on prothrombin [3] (catalytic Ser replaced by Ala, E*→E rate, 400 mM ChCl, 50 mM Tris, 0.1% PEG8000, pH 8.0, 15 °C); 8.8 ± 0.5 s⁻¹ on meizothrombin [4] (setting [14]); 16 ± 1 s⁻¹ at thrombin [5] (setting [14]). In addition, the kon at prethrombin-1 [1] (prethrombin-1, lower estimate from eq. 6, pH 8.0, 15 °C) was not below 460000 ± 50000 M⁻¹ s⁻¹; at prethrombin-2 [2] (prethrombin-2, lower estimate from eq. 5, pH 8.0, 15 °C), not below 930000 ± 80000 M⁻¹ s⁻¹; on prothrombin [3] (lower estimate from eq. 4, pH 8.0, 15 °C), not below 1.5e+06 ± 100000 M⁻¹ s⁻¹; on meizothrombin [4] (pH 8.0, 15 °C), 2.5e+06 ± 300000 M⁻¹ s⁻¹; on thrombin [5] (pH 8.0, 15 °C) it was 2.6e+06 ± 300000 M⁻¹ s⁻¹. The off-rate constant (koff) is 42 ± 2 s⁻¹ on prethrombin-1 [1] (prethrombin-1, pH 8.0, 15 °C); 27 ± 2 s⁻¹ on prethrombin-2 [2] (prethrombin-2, pH 8.0, 15 °C); not below 45 ± 5 s⁻¹ on prothrombin [3] (koff ≥ α2(0), pH 8.0, 15 °C); 0.8 ± 0.1 s⁻¹ at meizothrombin [4] (pH 8.0, 15 °C); 0.6 ± 0.1 s⁻¹ at thrombin [5] (pH 8.0, 15 °C). Besides, the Kd on prethrombin-1 [1] (prethrombin-1, under the assumption that kon = 1.5 μM^−1 s^−1, read-out: Kd,app (calculated from eq. 3)) was not below 92000 nM; at prethrombin-2 [2] (prethrombin-2, under the assumption that kon = 1.5 μM^−1 s^−1, read-out: Kd,app (calculated from eq. 3)), not below 29000 nM; on prothrombin [3] (from rate constants, pH 8.0, 15 °C, read-out: Kd,app (calculated from eq. 3)) it was not below 200000 nM; on meizothrombin [4] (setting [15]), 440 ± 30 nM; on thrombin [5] (setting [15]) it was 290 ± 20 nM; on meizothrombin [6] (setting [16]), 510 ± 40 nM. In addition, the Kd on meizothrombin [6] (read-out: Kd,app from equilibrium measurements) came out at 510 ± 40 nM; on prethrombin-1 [7] it was 92000 ± 8000 nM; at prethrombin-2 [8], 29000 ± 2000 nM; on prothrombin [9], 190000 ± 20000 nM; at thrombin [10] (setting [16]), 280 ± 20 nM; on thrombin [10] (read-out: Kd,app from equilibrium measurements of intrinsic fluorescence titration) it was 280 ± 20 nM. The k21 at prothrombin [3] (E→E* rate, same buffer, pH 8.0, 15 °C) is not below 38 ± 3 s⁻¹; on meizothrombin [4] (E→E* rate, pH 8.0, 15 °C), 3.4 ± 0.7 s⁻¹; at thrombin [5] (E→E* rate, pH 8.0, 15 °C), 3.8 ± 0.8 s⁻¹. Moreover, at prothrombin [3] (the smaller between koff or the sum k12 + k21), the “α2(0), limiting value of the slow relaxation” value stood at 45 ± 5 s⁻¹. For the same compound, the “higher affinity of thrombin compared to prothrombin” value at thrombin [10] (ratio of Kd,app, thrombin vs prothrombin) turned out to be 700 fold.

In the case of `CC1CNc2c(cccc2S(=O)(=O)N[C@@H](CCCNC(=N)N)C(=O)N2CC[C@@H](C)C[C@@H]2C(=O)O)C1` (some centres unmarked) [argatroban], the “effect on subtilisin digestion of prethrombin-2” value on prethrombin-2 [11] was “much less pronounced than that of prothrombin”. The “effect on products of subtilisin proteolysis of prothrombin” value at prothrombin [12] (non-reducing SDS-PAGE) was “prevents accumulation of prethrombin-1”. Also, on prothrombin [12] (pH 7.4, 37 °C), the “effect on the rate of proteolytic digestion of prothrombin by subtilisin” value is “significantly enhanced”. In addition, the “enhancement of the rate of prothrombin digestion by subtilisin” value on prothrombin [12] (subtilisin 1:1000 (w/w), pH 7.4, 37 °C, densitometry) is given as more than 10 fold. Also, the “effect on subtilisin digestion of thrombin” value on thrombin [13] is given as “practically absent; also recorded: no effect”. Also, the “kexp of chymotrypsin hydrolysis in the presence of argatroban” value at prothrombin mutant R271W (R271W 0.1 mg/ml, argatroban 500 μM, chymotrypsin 1:50 (w/w), pH 7.4, 37 °C) was determined as 0.027 ± 0.004 min⁻¹; at prothrombin mutant R320W (R320W 0.1 mg/ml, argatroban 500 μM, chymotrypsin 1:50 (w/w), pH 7.4, 37 °C), 0.035 ± 0.007 min⁻¹. Also, the “enhancement of the rate of chymotrypsin hydrolysis” value is 3 fold and > 3 fold on prothrombin mutant R271W (R271W, presence vs absence of argatroban); 3 fold and > 3 fold at prothrombin mutant R320W (R320W, presence vs absence of argatroban).
